Literature values, collected in patent publication US20130217743A1, “CANCER PREVENTION AND TREATMENT METHODS BASED ON DIETARY POLYAMINE CONTENT” (CANCER PREVENTION PHARMACEUTICALS, INC., priority 2010, published 2013).

What was measured:
[1] = system: prostoglandin E2 (PGE2) levels in flat mucosa; details: 300 mg/day, one month
[2] = for mean half-life: in vivo
[3] = human, in vivo
tumor putrescine levels = details: rat-tumor model, DFMO infusion
[4] = system: tumors harboring Ki-ras mutations; details: AOM-treated rats; reduced from 90%

## CC(C)Cc1ccc(C(C)C(=O)O)cc1 (centres unmarked) [ibuprofen]
[1]
  PGE2 levels in flat mucosa: significant decrease

## CC1=C(CC(=O)O)c2cc(F)ccc2/C1=C\c1ccc([S+](C)[O-])cc1 (centres unmarked) [sulindac, (Z)-5-fluoro-2-methyl-1-((4(methylsulfinyl)phenyl)methylene) 1H-indene-3-acetic acid]
[2]; after oral administration
  drug absorbed: about 90%
[2]; fasting patients
  time to peak plasma levels: about 2 hours
[2]
  mean half-life: 7.8 h
[3]
  mild gastrointestinal effects, patients: ~20%
  skin rash and pruritus, patients: 5%

## CC1=C(CC(=O)O)c2cc(F)ccc2/C1=C\c1ccc(S(C)(=O)=O)cc1 [Sulindac sulfone]
COX
  COX-inhibitory activity: lacks COX-inhibitory activity

## NCCCC(N)(C(=O)O)C(F)F (racemic) [DFMO, 2-(difluoromethyl)-dl-ornithine]
Tumor putrescine levels
  decrease in tumor putrescine levels: 90%
[4]
  number of tumors harboring Ki-ras mutations: 36%

## CSc1ccc(/C=C2/C(C)=C(CC(=O)O)c3cc(F)ccc32)cc1 [sulfide metabolite]
[2]
  mean half-life: 16.4 h

## CN1C(C(=O)Nc2ccccn2)=C(O)c2ccccc2S1(=O)=O [piroxicam, 4-hydroxy-2-methyl-N-2-pyridyl-2H-1,2-benzothiazine-3-carboxamide 1,1-dioxide]
[4]
  number of tumors harboring Ki-ras mutations: 25%
